Laboratory results reported in the NIST ThermoML archive (doi:10.1021/je800110r).

Details: 323.14 K, Liquid, Vibrating tube method

CCCCCCCCCC [decane]
Details | mass density [kg/m3]
13785 kPa | 718.8
13804 kPa | 718.9
13828 kPa | 718.9
14191 kPa | 719.3
14209 kPa | 719.3
14225 kPa | 719.4
14243 kPa | 719.2
14258 kPa | 719.3
14293 kPa | 719.3
14335 kPa | 719.3
14443 kPa | 719.4
14465 kPa | 719.4
14487 kPa | 719.5
14504 kPa | 719.5
14521 kPa | 719.5
14541 kPa | 719.5
14562 kPa | 719.5
14576 kPa | 719.5
14589 kPa | 719.5
14598 kPa | 719.5
14609 kPa | 719.6
14666 kPa | 719.6
14766 kPa | 719.7
14778 kPa | 719.6
14789 kPa | 719.6
14800 kPa | 719.6
14810 kPa | 719.7
14824 kPa | 719.7
14837 kPa | 719.7
14850 kPa | 719.7
14864 kPa | 719.8
14876 kPa | 719.8
14889 kPa | 719.7
14900 kPa | 719.7
14913 kPa | 719.8
14923 kPa | 719.9
14931 kPa | 719.9
14941 kPa | 719.8
14955 kPa | 719.8
14964 kPa | 719.8
14976 kPa | 719.9
14990 kPa | 719.9
15000 kPa | 719.8
15350 kPa | 720.2
15364 kPa | 720.1
15378 kPa | 720.2
15435 kPa | 720.1
15447 kPa | 720.2
15460 kPa | 720.2
15476 kPa | 720.3
15490 kPa | 720.3
15507 kPa | 720.3
15517 kPa | 720.2
15527 kPa | 720.3
15542 kPa | 720.4
15556 kPa | 720.2
15567 kPa | 720.3
15581 kPa | 720.4
15594 kPa | 720.3
15610 kPa | 720.3
15624 kPa | 720.4
15639 kPa | 720.3
15655 kPa | 720.4
15673 kPa | 720.4
15738 kPa | 720.4
15754 kPa | 720.6
15765 kPa | 720.5
15776 kPa | 720.5
15787 kPa | 720.5
15805 kPa | 720.5
15818 kPa | 720.6
15829 kPa | 720.6
15844 kPa | 720.6
15853 kPa | 720.6
15866 kPa | 720.5
15877 kPa | 720.5
15890 kPa | 720.5
15904 kPa | 720.6
15915 kPa | 720.5
15926 kPa | 720.6
15940 kPa | 720.6
15955 kPa | 720.6
15970 kPa | 720.6
15982 kPa | 720.7
16000 kPa | 720.7
16012 kPa | 720.6
16029 kPa | 720.7
16041 kPa | 720.8
16056 kPa | 720.6
16067 kPa | 720.7
16079 kPa | 720.8
16091 kPa | 720.8
16100 kPa | 720.9
16110 kPa | 720.7
16124 kPa | 720.7
16136 kPa | 720.8
16148 kPa | 720.7
16160 kPa | 720.7
16175 kPa | 720.8
16192 kPa | 720.9
16206 kPa | 720.8
16223 kPa | 720.9
16235 kPa | 720.9
16249 kPa | 720.9
16265 kPa | 720.8
16281 kPa | 720.9
16305 kPa | 720.9
16323 kPa | 720.9
16485 kPa | 721.1
16497 kPa | 721
16509 kPa | 721.1
16526 kPa | 721
16540 kPa | 721.1
16554 kPa | 721.1
16570 kPa | 721.1
16583 kPa | 721
16614 kPa | 721.1
16658 kPa | 721.2
17010 kPa | 721.4
17025 kPa | 721.5
17272 kPa | 721.7
17288 kPa | 721.6
17305 kPa | 721.6
17323 kPa | 721.8
17337 kPa | 721.8
17350 kPa | 721.7
17369 kPa | 721.7
17387 kPa | 721.7
17405 kPa | 721.7
17419 kPa | 721.7
17442 kPa | 721.7
17455 kPa | 721.9
17473 kPa | 721.8
17491 kPa | 721.9
17510 kPa | 721.8
17532 kPa | 721.9
17546 kPa | 721.9
17561 kPa | 721.9
17579 kPa | 721.9
17593 kPa | 721.9
17612 kPa | 722
17645 kPa | 721.9
17659 kPa | 722
17677 kPa | 722
17694 kPa | 722
17715 kPa | 721.9
17731 kPa | 722
17751 kPa | 722
17772 kPa | 722
17788 kPa | 722.1
17805 kPa | 722.1
17824 kPa | 722.1
17838 kPa | 722.1
17860 kPa | 722.2
17879 kPa | 722.1
17901 kPa | 722.3
17922 kPa | 722.1
17942 kPa | 722.2
17955 kPa | 722.2
17972 kPa | 722.2
17992 kPa | 722.3
18009 kPa | 722.3
18023 kPa | 722.3
18038 kPa | 722.2
18057 kPa | 722.1
18072 kPa | 722.3
18087 kPa | 722.2
18109 kPa | 722.2
18131 kPa | 722.3
18155 kPa | 722.2
18169 kPa | 722.3
18192 kPa | 722.4
18209 kPa | 722.4
18232 kPa | 722.4
18247 kPa | 722.4
18269 kPa | 722.4
18292 kPa | 722.4
18310 kPa | 722.4
18335 kPa | 722.4
18351 kPa | 722.5
18374 kPa | 722.5
18390 kPa | 722.5
18405 kPa | 722.5
18423 kPa | 722.6
18443 kPa | 722.5
18464 kPa | 722.6
18487 kPa | 722.7
18500 kPa | 722.6
18518 kPa | 722.7
18543 kPa | 722.7
18564 kPa | 722.7
18583 kPa | 722.6
18598 kPa | 722.7
18616 kPa | 722.6
18637 kPa | 722.7
18660 kPa | 722.7
18684 kPa | 722.7
18703 kPa | 722.7
18735 kPa | 722.7
18758 kPa | 722.7
18795 kPa | 722.8
18816 kPa | 722.9
18846 kPa | 722.9
18905 kPa | 722.9
18921 kPa | 722.9
18940 kPa | 722.9
18959 kPa | 723
18983 kPa | 722.9
19005 kPa | 723.1
19027 kPa | 723
19043 kPa | 723
19062 kPa | 723.1
19263 kPa | 723.2
19308 kPa | 723.2
19354 kPa | 723.3
19373 kPa | 723.3
19390 kPa | 723.4
19410 kPa | 723.3
19436 kPa | 723.3
19461 kPa | 723.4
19485 kPa | 723.4
19509 kPa | 723.4
19574 kPa | 723.4
19594 kPa | 723.5
19637 kPa | 723.4
19655 kPa | 723.6
19672 kPa | 723.5
19720 kPa | 723.6
19741 kPa | 723.5
19760 kPa | 723.6
19777 kPa | 723.6
19795 kPa | 723.6
19813 kPa | 723.6
19840 kPa | 723.6
19867 kPa | 723.7
19891 kPa | 723.7
19912 kPa | 723.8
19936 kPa | 723.7
19957 kPa | 723.7
20009 kPa | 723.8
20031 kPa | 723.8
20049 kPa | 723.7
20080 kPa | 723.8
20105 kPa | 723.9
20127 kPa | 723.9
20154 kPa | 723.9
20176 kPa | 723.9
20191 kPa | 723.9
20210 kPa | 724
20235 kPa | 723.9
20257 kPa | 724
20286 kPa | 724
20304 kPa | 723.8
20323 kPa | 724
20345 kPa | 724
20363 kPa | 724
20389 kPa | 724.1
20431 kPa | 724.2
20462 kPa | 724
20482 kPa | 724.2
20504 kPa | 724.1
20520 kPa | 724.2
20562 kPa | 724.2
20584 kPa | 724.3
20607 kPa | 724.2
20630 kPa | 724.1
20675 kPa | 724.4
21120 kPa | 724.6
21147 kPa | 724.5
21168 kPa | 724.7
21192 kPa | 724.6
21219 kPa | 724.7
21366 kPa | 724.8
